Experimental data from BindingDB's records for patent US12391669 (University Of California, 2025).

How the values were obtained:
[1] = biological target: Serine/threonine-protein kinase/endoribonuclease IRE1 (Homo sapiens, UniProt O75460); experiment: Not found
Excerpt: Not found

[2] = biological target: Serine/threonine-protein kinase/endoribonuclease IRE2 (Human, UniProt Q76MJ5); experiment: Not found
Excerpt: Not found

Serine/threonine-protein kinase/endoribonuclease IRE1, sequence (O75460 whole entry): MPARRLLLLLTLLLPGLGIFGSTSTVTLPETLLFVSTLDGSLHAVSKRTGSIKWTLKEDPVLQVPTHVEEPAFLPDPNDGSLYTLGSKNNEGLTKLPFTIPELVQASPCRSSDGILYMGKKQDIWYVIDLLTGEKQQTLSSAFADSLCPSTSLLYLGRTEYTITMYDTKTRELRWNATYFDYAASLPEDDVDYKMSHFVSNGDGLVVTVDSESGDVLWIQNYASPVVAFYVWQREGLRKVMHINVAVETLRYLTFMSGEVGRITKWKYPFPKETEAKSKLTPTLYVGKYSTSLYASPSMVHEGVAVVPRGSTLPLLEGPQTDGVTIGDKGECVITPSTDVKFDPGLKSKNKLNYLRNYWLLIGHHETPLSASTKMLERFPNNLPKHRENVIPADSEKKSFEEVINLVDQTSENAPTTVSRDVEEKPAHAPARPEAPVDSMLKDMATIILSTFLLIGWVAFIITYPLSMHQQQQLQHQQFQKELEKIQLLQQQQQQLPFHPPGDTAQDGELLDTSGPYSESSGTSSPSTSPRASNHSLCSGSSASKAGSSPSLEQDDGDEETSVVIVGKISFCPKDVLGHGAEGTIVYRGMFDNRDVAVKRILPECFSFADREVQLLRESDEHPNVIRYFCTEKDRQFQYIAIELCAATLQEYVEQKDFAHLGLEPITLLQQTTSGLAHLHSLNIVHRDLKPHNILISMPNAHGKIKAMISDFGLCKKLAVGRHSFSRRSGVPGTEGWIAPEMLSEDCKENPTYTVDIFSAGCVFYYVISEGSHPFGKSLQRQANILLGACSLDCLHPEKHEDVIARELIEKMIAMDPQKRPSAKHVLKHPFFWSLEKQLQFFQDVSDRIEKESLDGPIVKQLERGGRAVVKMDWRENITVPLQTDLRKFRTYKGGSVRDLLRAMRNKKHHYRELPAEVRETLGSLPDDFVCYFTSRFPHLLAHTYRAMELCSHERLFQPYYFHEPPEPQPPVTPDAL
Serine/threonine-protein kinase/endoribonuclease IRE2, sequence (Q76MJ5 whole entry): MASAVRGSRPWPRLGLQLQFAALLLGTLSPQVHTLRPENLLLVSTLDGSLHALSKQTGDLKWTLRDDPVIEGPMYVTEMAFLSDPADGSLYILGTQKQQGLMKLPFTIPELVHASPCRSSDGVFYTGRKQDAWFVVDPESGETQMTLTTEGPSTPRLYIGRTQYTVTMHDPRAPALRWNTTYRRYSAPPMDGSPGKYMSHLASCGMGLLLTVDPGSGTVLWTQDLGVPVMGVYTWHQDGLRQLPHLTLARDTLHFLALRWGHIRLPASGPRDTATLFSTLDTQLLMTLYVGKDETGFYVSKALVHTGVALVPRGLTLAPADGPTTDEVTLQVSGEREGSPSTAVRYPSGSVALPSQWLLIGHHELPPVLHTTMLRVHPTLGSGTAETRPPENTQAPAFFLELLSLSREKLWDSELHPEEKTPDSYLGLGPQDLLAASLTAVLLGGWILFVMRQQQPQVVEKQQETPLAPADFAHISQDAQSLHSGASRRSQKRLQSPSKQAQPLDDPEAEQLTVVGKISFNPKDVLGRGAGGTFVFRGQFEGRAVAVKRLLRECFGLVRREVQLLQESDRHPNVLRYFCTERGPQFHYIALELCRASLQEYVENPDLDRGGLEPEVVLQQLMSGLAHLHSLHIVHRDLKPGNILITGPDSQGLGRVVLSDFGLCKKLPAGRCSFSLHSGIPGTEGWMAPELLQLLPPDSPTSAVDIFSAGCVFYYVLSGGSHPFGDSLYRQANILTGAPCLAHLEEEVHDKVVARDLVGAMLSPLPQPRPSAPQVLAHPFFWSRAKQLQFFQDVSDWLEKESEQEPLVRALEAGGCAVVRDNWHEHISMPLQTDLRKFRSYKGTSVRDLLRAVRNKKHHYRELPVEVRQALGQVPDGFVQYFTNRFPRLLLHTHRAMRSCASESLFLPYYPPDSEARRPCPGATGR

IC50 [1] [nM] | IC50 [2] [nM] | SMILES
443 | – | c1cc(Cc2nc3ccccc3[nH]2)cc(Oc2ncsc2-c2ccnc(N[C@H]3CCCNC3)n2)c1 [US12391669, Compound 35]
52 | > 10000 | Cc1ccc(C(=O)NCc2ccccc2Cl)cc1Oc1ncsc1-c1ccnc(N[C@H]2CCCNC2)n1 [US12391669, Compound 20]
